Holding throughout (format): biochemical
Conditions in all cases: 1.5 mg/ml

One assay deals with T1, human thrombin (Homo sapiens, UniProt P00734).
T1 construct: 50 μl of 0.5 U thrombin (Sigma Co., USA); purchased Sigma Co., USA
Description: Thrombin time (plasma clotting time with added thrombin). Here is the method:
(§1) The blood clotting inhibitory activity (thrombus formation inhibitory activity) of each of the wasp extracts prepared in Example 1 was evaluated by measuring the thrombin time, the prothrombin time and the aPTT time in the same manner as a previously reported method (Sohn et al., 2004. Kor. J. Pharmacogn 35. 52-61; Kwon et al., 2004. J. Life Science, 14. 509-513; Ryu et al., 2010. J. Life Science, 20. 922-928). As plasma, control plasma (MD Pacific Technology Co., Ltd., Huayuan Industrial Area, China) was used. The thrombin time, the prothrombin time and the aPTT time were measured by the following methods.
50 μl of 0.5 U thrombin (Sigma Co., USA), 50 μl of 20 mM CaCl2) and 10 μl of each sample extract at various concentrations were mixed in a tube of Amelung coagulometer KC-1A (Japan) at 37° C. and allowed to react for 2 minutes, and then 100 μl of plasma was added thereto and the time taken for the plasma to clot was measured. As a control, aspirin (Sigma Co., USA) was used, and a solvent control, DMSO was used instead of the sample. […] The thrombin inhibitory effect was expressed as the average of three or more repeated experiments, and the thrombin inhibitory activity was expressed as the value obtained by dividing the clotting time after sample addition by the clotting time of the solvent control.

Another assay has as its system prothrombin. Description: Prothrombin time (plasma clotting time with PT reagent). How it is done:
as §1
70 μl of standard plasma (MD Pacific Co., China) and 10 μl of each sample extract at various concentrations were added to a tube of Amelung coagulometer KC-1A (Japan) and warmed at 37° C. for 3 minutes, and then 130 μl of PT reagent was added thereto. The time taken for the plasma to clot was expressed as the average of three repeated experiments. […] The prothrombin inhibitory activity was expressed as the value obtained by dividing the clotting time after sample addition by the clotting time of the solvent control.

The next assay relates to blood clotting factors. Nature of the assay: Activated partial thromboplastin time (aPTT). Here is the method:
as §1
Activated Partial Thromboplastin Time (aPTT)
100 μl of plasma and 10 μl of each sample extract at various concentrations were added to a tube of Amelung coagulometer KC-1A (Japan) and warmed at 37° C. for 3 minutes, and then 50 μl of aPTT reagent (Sigma, ALEXIN™) was added thereto, followed by incubation at 37° C. for 3 minutes. Thereafter, 50 μl of CaCl2) (35 mM) was added thereto, and then the time taken for the plasma to clot was measured. […] The aPTT was expressed as the average of three repeated experiments, and the blood clotting inhibitory activity was expressed as the value obtained by dividing the aPTT after sample addition by the aPTT of the solvent control.

Where “and” joins values, the source holds several entries; their conditions need not be identical. Equal entries are not always repeated.

As for `CC(=O)Oc1ccccc1C(=O)O` [Aspirin], the “Thrombin time (blood clotting time after sample addition/blood clotting time after solvent addition)” value at human thrombin (Table 2) is 1.54 and 1.54 ± 0.11; on human thrombin (Table 4), 1.43 ± 0.04. The “Prothrombin time (blood clotting time after sample addition/blood clotting time after solvent addition)” value was 1.44 and 1.44 ± 0.04 in the assay on prothrombin (Table 2); 1.73 ± 0.01 in the assay on prothrombin (Table 4). Moreover, in the assay on blood clotting factors (Table 2), the “Blood clotting factor inhibition time (aPTT time) (sample/solvent)” value is 1.55 and 1.55 ± 0.07. Besides, the “Blood clotting factor inhibition time (aPT time) (sample/solvent)” value in the assay on blood clotting factors (Table 4) came to 1.42 ± 0.03.

Values taken from patent US20230038188A1 (priority 2021, published 2023).
